This is an account of results in patent US20260242359A1, “IRHOM2 INHIBITORS AND USES THEREOF” (NEW YORK SOCIETY FOR THE RELIEF OF THE RUPTURED AND …, priority 2023, published 2026).

In the first experiment the test system is PMA-stimulated TGFα release from HEK-293 cells (substrate of iRhom1/ADAM17 and iRhom2/ADAM17). Kind of experiment: Counter screen (Example 4a): PMA-stimulated TGFα release from HEK-293 cells, AP readout. The experiment is classed as cell-based. To be noted: Homo sapiens, HEK293, HEK-293 cells expressing TGFα-AP, PMA 100 ng/mL, 2 h, read-out: Counter Screen XC50 TGFα. The method, then: A tertiary counterscreen was also performed to monitor the release of TGFα, which is a substrate of iRhom1/ADAM17 and iRhom2/ADAM17, so its release should not be blocked by an iRhom2-selective inhibitor (Maretzky T et al. (July 2013), “iRhom2 controls the substrate selectivity of stimulated ADAM117-dependent ectodomain shedding”, PNAS 110(28): 11433-11438; and Li X et al. (May 2015), “iRhoms 1 and 2 are essential upstream regulators of ADAM17-dependent EGFR signaling”, PNAS 112(19): 6080-6085).
First, expression plasmids for alkaline phosphatase (AP)-fused KL2 and TGFα were designed and generated through gene synthesis followed by subcloning into the pcDNA3.1(+)/Hygro expression vector. […] During cell culturing, cell density and viability were monitored to ensure optimal conditions for the transfections. After PMA stimulation, AP-coupled KL2 or TGFα were detected by measurement of AP activity in the supernatant. […]
After electroporation, cells were further cultured in presence of selection antibiotics, hygromycin B, to generate stably transfected polyclonal cell pools. […] Final assay conditions were determined for the selected pools. […]
60 μL of cells (20,000/well) were added to a sterile 384-well plate. […] The reaction was stopped by addition of 20 μL of NaOH (1 M final conc.) and the absorbance of pNP was measured at 405 nm.
For orientation: Counterscreens check selectivity or assay interference.
For `CCC(=O)NCCc1c(/C=C2/C(=O)NC(=O)N(c3ccc(C)cc3C)C2=O)[nH]c2ccccc12` [Compound 1], the IC50 turned out to be 12.6 µM.

With `CCOC(=O)c1ccc(Nc2nc3nonc3n3nnnc23)cc1` [Compound 2], the IC50 stood at 9.91 µM.

The subject of a further experiment is PMA-stimulated KL2 release from HEK-293 cells (iRhom2/ADAM17 selective substrate). Kind of experiment: Secondary screen (Example 3b): PMA-stimulated KL2 release from HEK-293 cells, AP readout. To be noted: Homo sapiens, HEK293, HEK-293 cells expressing KL2-AP, PMA 100 ng/mL, 2 h, read-out: Secondary Screen IC50 KitL2. The experiment is classed as cell-based. How it is done: Two separate screens to identify novel small molecule inhibitors of iRhom2/ADAM17 activity were developed. […] Therefore, the primary screen for small molecule inhibitors of iRhom2/ADAM17 was a screen for inhibitors that blocked the release of TNFα from LPS-stimulated THP-1 human myeloid cells, a process that depends on iRhom2 and ADAM17. Since the release of TNFα from THP-1 cells can be blocked at many stages of the LPS/TLR4/iRhom2/ADAM17 pathway, a secondary screen was performed for another iRhom2/ADAM17 selective substrate, Kit-ligand 2 (KL-2) (Maretzky T et al. (July 2013), “iRhom2 controls the substrate selectivity of stimulated ADAM17-dependent ectodomain shedding”, PNAS 110(28): 11433-11438) in a different human cell type, human embryonic kidney cells (HEK 293).
Expression plasmids for alkaline phosphatase (AP)-fused human KL2 and TGFα had been previously designed and generated through gene synthesis followed by subcloning into the pcDNA3.1(+)/Hygro expression vector. […] Subsequently, DNA amplifications were performed to obtain sufficient amounts of the expression vectors. The quality of DNA and gene sequences were confirmed through restriction digest and Sanger sequencing. In parallel, cell culture of HEK-293 cells was initiated. Master and working cell banks were prepared, scaled up and transfected with the respective constructs by electroporation. During cell culturing, cell density and viability were monitored to ensure optimal conditions for the transfections. After PMA stimulation, AP-coupled KL2 or TGFα were detected by measurement of AP activity in the supernatant.
After electroporation, cells were further cultured in presence of selection antibiotics, hygromycin B, to generate stably transfected polyclonal cell pools. For both assays, KL2 and TGFα shedding, the respective selected pool turned out to be suitable. Final assay conditions were determined for the selected pools. For all experiments, batimastat (BB94, 10 μM) was used as positive control for full inhibition of KL2 or TGFα shedding.
The wells of sterile 384-well flat bottom clear plates for KL2-AP assays were coated with 10 μL of 0.1 mg/mL poly-d-lysine for 3-4 hr at 25° C. or overnight at 4° C., then washed 2× with PBS and patted dry. 60 μL of cells (40,000/well) were added to the sterile 384-well plate and incubated in Optimem (with 2% FCS and 1% Pen-strep) overnight at 37° C. (5% CO2). After incubation overnight, 55 μL medium were removed with a BioTek EL406 and 10 μL of prediluted compounds were added to the cells for a final concentration of 20 μM. After incubation for 15 min, 15 μL of PMA (100 ng/mL final conc.) were added. The cells were incubated for 2 h at 37° C. (5% CO2). Then, the plates were centrifuged for 5 min at 1000 rpm and 3 μL of the supernatant was transferred to a fresh 384 well plate and 9 μL of AP Balance Buffer was added per well. 12 μL of pNPP p-nitrophenyl phosphate (final 1 M pNPP) was added. AP reaction was performed for 1 h at 37° C. The reaction was stopped by addition of 12 μL of NaOH (1 M final conc.), the plates were centrifuged to remove air bubbles and the absorbance of pNP was measured at 405 nm.
As to `O=C(c1c(Cl)cccc1Cl)N1CCC(Cc2ccc(F)cc2)CC1` [Compound 3], the IC50 is greater than 40 µM. `Cc1c(C(=O)NCc2cccs2)sc(=O)n1Cc1ccccc1` [Compound 4]: the IC50 is greater than 40 µM.

`Cc1c(C(=O)NCc2cccs2)sc(=O)n1Cc1ccccc1F` [Compound 5]: the IC50 is greater than 40 µM. As for `Cc1c(C(=O)NCc2ccco2)sc(=O)n1Cc1ccccc1F` [Compound 7], the IC50 was found to be 22 µM.
